Reference: patent publication US20080200372A1, “Glycosaminoglycan Peptides Derived From Connective Tissues And Use Thereof In The Prevention Of Arthritis And Other Degenerative Medical Conditions” (Institute of Nutraceutical Research Pty Ltd., priority 2004, published 2008)
Entries after “also recorded” stand apart in the source; their conditions may differ.

Assays:
[1] = tested on: rat collagen induced arthritis (CIA) model; assay: Rat type II collagen induced arthritis (CIA) model, toleragenic protocol (7 days oral pre-administration); format: in vivo; settings: for activity as toleragens in the rat CIA model: comparative study with CaP, FIG. 8
Procedure: In another example of the present invention, the tolerogenic protocol of evaluation of the pharmaceutical of the invention comprises administering the pharmaceutical composition to the animals prior to inducing arthritis by injection of the arthritogen. The pharmaceutical composition is administered for a period of time suitable to tolerize the animal. In one example the pharmaceutical composition is administered for 1 to 21 days prior to administration of the arthritogen. In one preferred example the pharmaceutical composition is administered for 1, 7, 10, 15 or 20 days prior to administration of the arthritogen. According to the toleragenic protocol for studying the activity of the pharmaceutical of the present invention, it is preferred that administration of the pharmaceutical composition ceases at the time that the arthritogen is administered.
Female Wistar rats (160-180 gm) were inoculated with 250 μg of the arthritogen, bovine tracheal collagen type-II dissolved in dilute acetic acid (0.01M) and applied as 6 divided injections into their tail base on day 0. The body weight of animals, together with their tail and paw swelling, were determined every 48 h, the latter parameters being determined using callipers and results expressed in millimetres (mm). Arthritis development was also assessed from day 11 onwards using a macroscopic scoring scale whereby rear paw, fore paw, and tail swelling were scored on a scale 0-4+. An overall arthritis score (0-4+) was also determined on the basis of overall inflammation and other signs of disease activity, e.g. piloerection, diminished mobility, poor grooming etc as described previously [Creamer M. et al. Collagen-induced arthritis in rats. J Immunology, 149:1045-1053, 1992]. […]

[2] = tested on: rat collagen induced arthritis (CIA) model; assay: Rat type II collagen induced arthritis (CIA) model, prophylactic protocol (15 days oral administration); format: in vivo; settings: 200 mg/kg oral, 15 days administration, measured on day 15 (FIG. 8, FIG. 14)
Procedure: According to the prophylactic protocol of evaluation, the pharmaceutical composition of the present invention is administered to the animals from the time the animals are injected with arthritogen and for a number of days thereafter. In one example the pharmaceutical composition is administered to the animal for between 1 and 15 days after administration of the arthritogen. In alternate examples of the invention the pharmaceutical composition is administered for example for 7, 10, 15 or 20 days after administration of the arthritogen. The scope of the present invention extends to the administration of the pharmaceutical composition for an appropriate period of time after administration of the arthritogen that is suitable to effect prophylaxis to prevent the onset of symptoms of a harmful immune response to the arthritogen. […] The body weight of animals, together with their tail and paw swelling, were determined every 48 h, the latter parameters being determined using callipers and results expressed in millimetres (mm). Arthritis development was also assessed from day 11 onwards using a macroscopic scoring scale whereby rear paw, fore paw, and tail swelling were scored on a scale 0-4+. […]

[3] = tested on: haemorrhagic stomach lesions produced by ibuprofen in rats with CIA; assay: Gastroprotective activity in the rat CIA model against haemorrhagic stomach lesions produced by ibuprofen; format: in vivo
Procedure: FIG. 18 provides a table (Table 1) of the results for testing gastroprotective activity of Calcium Peptacan in the Rat CIA Arthritis Model against haemorrhagic stomach lesions produced by oral administration of the non-steroidal anti-inflammatory drug, Ibufrofen (50 mg/kg) on day 20.
As discussed earlier the chronic use of NSAIDs by OA and RA patients is frequently associated with serious side effects in the gastrointestinal tract particularly with respect the induction of gastric bleeding. This effect was confirmed in an animal model by administering 50 mg/kg of the NSAID, ibuprofen, to rats in which CIA had been ongoing for 20 days [see FIG. 18—Table 1].

[4] = tested on: citrated human plasma; assay: In vitro anticoagulant activity, activated partial thromboplastin time (aPTT); format: biochemical
Procedure: Pharmaceutical quality chondroitin sulfate were obtained from Bioiberica, Barcelona, Spain (ChS#1) and Sigma Chemical Co St Louis, Mo., USA (ChS#2). Calcium peptacan (CaP), and GAG-peptide (GAG-P), prepared as described herein, were evaluated for their anticoagulant activities using a commercial aPTT reagent (Actin FSL activated PTT reagent, Dade-Behring Margurg GmbH, Marburg, Germany) and a standard human plasma: (Ci-Trol Coagulation Control level 2, Dade-Behring Margurg GmbH, Marburg, Germany) according to the protocol supplied by the manufacturer. Stock solutions of the test preparations were dissolved in 0.025M calcium chloride and serially diluted in this buffer to correspond to the concentrations of 0-1.25 mg/mL. The aPTT times were determined by the addition of these solutions to a mixture of the Actin FSL reagent and control plasma held at 37° C. in cuvettes of a fibrin-timer (Dade-Behring Margurg GmbH, Marburg, Germany). This instrument quantitated the time in seconds for clot formation. All samples were assayed in duplicate and the mean values plotted against concentration using a semi-log scale.

[5] = tested on: type II collagen (CII) arthritis (CIA) in mice; settings: cited from earlier work

Cl.N[C@H]1C(O)O[C@H](CO)[C@@H](O)[C@@H]1O (stereo partly drawn) [GmHCl, Glucosamine Hydrochloride]
activity as toleragens in the rat CIA model [1]: inactive as toleragens
prophylactic effects on arthritis development (rear paw swelling, front paw inflammation, arthritis scores) [2]: CaP was the only preparation that demonstrated anti-arthritic activity

N[C@H]1C(O)O[C@H](CO)[C@@H](O)[C@@H]1O.O=S(=O)(O)O (stereo partly drawn) [GmSO4, Glucosamine Sulfate]
activity as toleragens in the rat CIA model [1]: inactive as toleragens
prophylactic effects on arthritis development (rear paw swelling, front paw inflammation, arthritis scores) [2]: CaP was the only preparation that demonstrated anti-arthritic activity

O=C(O)CC([S-])C(=O)O.[Au+] (stereo not drawn) [aurothiomalate]
gastro protective effectiveness ([3]; ibuprofen 50 mg/kg on day 20 of CIA, dose of test substance not given): only marginally effective

CC(C)Cc1ccc(C(C)C(=O)O)cc1 (stereo not drawn) [ibuprofen]
induction of gastric bleeding ([3]; 50 mg/kg to rats in which CIA had been ongoing for 20 days): confirmed

chondroitin sulfate [ChS #1]
anticoagulant effect (aPTT) ([4]; citrated human plasma, 0-1.25 mg/mL (FIG. 17)): strongest anticoagulant effect

chondroitin sulfate [ChS]
toleragenic effects on arthritis development (rear paw swelling, front paw inflammation, arthritis scores) ([1]; 20 mg/kg oral, 7 days pre-administration, measured on day 15 (FIG. 7, FIG. 9)): inactive as a toleragen; also recorded: no activity
concentration range over which anti-coagulant activity was exhibited ([4]; aPTT (FIG. 17)): 0.4 to 1.2 mg/mL
delayed-type hypersensitivity (DTH) reaction ([5]; at any dose (100, 300, 1000 mg/kg), mice): no effect
severity of the disease (hind paw oedema, synovitis, destruction of the articular cartilage) ([5]; only at the highest dose, 1000 mg/kg oral, mice): significantly reduced
incidence of arthritis ([5]; oral doses of 100, 300 and 1000 mg/kg for 14 days prior to inducing CIA in mice): failed to prevent the incidence of arthritis
